Entries after “also recorded” stand apart in the source; their conditions may differ.
Test system: NOD-SCID mice bearing isogenic PSMA^+ PC3 PIP and PSMA^− PC3 flu tumors
Experiment: Biodistribution in tumor-bearing mice
Conditions: for PSMA^+ PIP tumor uptake: PSMA+ PC3 PIP xenograft; for PSMA^− flu tumor uptake: PSMA− PC3 flu xenograft
[1] = 30 min postinjection, tail vein, ± SD, n = 3–4
[2] = 60 min postinjection, tail vein, ± SD, n = 3–4
[3] = 120 min postinjection, tail vein, ± SD, n = 3–4
[4] = 240 min postinjection, tail vein, ± SD, n = 3–4

Structure (SMILES): O=C(O)CCC(NC(=O)NC(CCCCNC(=O)c1ccc([18F])nc1)C(=O)O)C(=O)O (stereo not shown) [[^18F]DCFPyL, 2-(3-{1-carboxy-5-[(6-[^18F]fluoropyridine-3-carbonyl)-amino]-pentyl}-ureido)-pentanedioic acid, reference compound]
- PSMA^+ PC3 PIP tumor uptake compared to [^18F]YC-88 (1, 2, and 4 h): significantly higher
- blood uptake [1]: 1.67 ± 0.54 % ID/g
- bone uptake [1]: 1.00 ± 0.51 % ID/g
- fat uptake [1]: 1.42 ± 0.51 % ID/g
- heart uptake [1]: 0.84 ± 0.16 % ID/g
- kidney uptake [1]: 135.28 ± 9.75 % ID/g
- large intestine uptake [1]: 1.17 ± 0.06 % ID/g
- liver uptake [1]: 3.54 ± 0.20 % ID/g
- muscle uptake [1]: 0.54 ± 0.05 % ID/g
- salivary gland uptake [1]: 2.60 ± 0.60 % ID/g
- small intestine uptake [1]: 0.83 ± 0.03 % ID/g
- spleen uptake [1]: 10.67 ± 1.68 % ID/g
- stomach uptake [1]: 0.90 ± 0.14 % ID/g
- blood uptake [2]: 0.72 ± 0.22 % ID/g
- fat uptake [2]: 0.84 ± 0.44 % ID/g
- heart uptake [2]: 0.32 ± 0.09 % ID/g
- large intestine uptake [2]: 0.49 ± 0.05 % ID/g
- liver uptake [2]: 3.48 ± 0.21 % ID/g
- lung uptake [2]: 1.41 ± 0.25 % ID/g
- muscle uptake [2]: 0.36 ± 0.18 % ID/g
- pancreas uptake [2]: 0.61 ± 0.21 % ID/g
- salivary gland uptake [2]: 1.57 ± 0.18 % ID/g
- small intestine uptake [2]: 0.56 ± 0.12 % ID/g
- spleen uptake [2]: 5.61 ± 0.56 % ID/g
- stomach uptake [2]: 0.50 ± 0.10 % ID/g
- bladder (empty) uptake [3]: 11.40 ± 9.95 % ID/g
- blood uptake [3]: 0.23 ± 0.05 % ID/g
- bone uptake [3]: 0.37 ± 0.05 % ID/g
- fat uptake [3]: 0.15 ± 0.02 % ID/g
- kidney uptake [3]: 61.23 ± 20.36 % ID/g
- liver uptake [3]: 3.08 ± 0.13 % ID/g
- lung uptake [3]: 0.41 ± 0.09 % ID/g
- muscle uptake [3]: 0.08 ± 0.02 % ID/g
- pancreas uptake [3]: 0.23 ± 0.05 % ID/g
- salivary gland uptake [3]: 0.43 ± 0.15 % ID/g
- small intestine uptake [3]: 0.55 ± 0.50 % ID/g
- spleen uptake [3]: 1.64 ± 0.40 % ID/g
- stomach uptake [3]: 0.21 ± 0.06 % ID/g
- bladder (empty) uptake [4]: 16.85 ± 10.15 % ID/g
- blood uptake [4]: 0.11 ± 0.00 % ID/g
- bone uptake [4]: 0.71 ± 0.40 % ID/g
- fat uptake [4]: 0.10 ± 0.05 % ID/g
- heart uptake [4]: 0.06 ± 0.01 % ID/g
- kidney uptake [4]: 19.36 ± 2.32 % ID/g
- large intestine uptake [4]: 0.83 ± 1.00 % ID/g
- liver uptake [4]: 2.30 ± 0.28 % ID/g
- lung uptake [4]: 0.16 ± 0.02 % ID/g
- muscle uptake [4]: 0.07 ± 0.04 % ID/g
- pancreas uptake [4]: 0.09 ± 0.02 % ID/g
- salivary gland uptake [4]: 0.32 ± 0.22 % ID/g
- small intestine uptake [4]: 0.16 ± 0.04 % ID/g
- spleen uptake [4]: 0.55 ± 0.11 % ID/g
- stomach uptake [4]: 0.09 ± 0.03 % ID/g
- PSMA^+ PIP tumor uptake [1]: 64.85 ± 19.22 % ID/g
- PSMA^+ PIP tumor uptake [2]: 84.29 ± 12.29 % ID/g
- PSMA^+ PIP tumor uptake [3]: 69.55 ± 1.71 % ID/g
- PSMA^+ PIP tumor uptake [4]: 74.34 ± 7.28 % ID/g
- PSMA^− flu tumor uptake [1]: 1.50 ± 0.71 % ID/g
- PSMA^− flu tumor uptake [2]: 0.46 ± 0.06 % ID/g
- PSMA^− flu tumor uptake [3]: 0.21 ± 0.06 % ID/g
- PSMA^− flu tumor uptake [4]: 0.21 ± 0.17 % ID/g

Structure (SMILES): O=C(O)CCC(NC(=O)NC(CCCCNC(=O)CCc1cn(CC[18F])nn1)C(=O)O)C(=O)O (stereo not shown) [[^18F]YC-88, 2-[3-(1-carboxy-5-{3-[1-(2-[^18F]fluoroethyl)-1H-1,2,3-triazol-yl]propanamido}pentyl)ureido]-pentanedioic acid]
- difference in PSMA^+ PC3 PIP tumor uptake between [^18F]YC-88 and [^18F]DCFPyL (30 min, P > 0.05): not statistically significant
- salivary gland uptake compared to [^18F]DCFPyL (30 min and 1 h postinjection): significantly less; also recorded: significantly lower
- PIP/flu uptake ratio (30 min postinjection): 70
- PIP/kidney uptake ratio (tumor-to-kidney) (30 min postinjection): 0.9
- bladder (empty) uptake [1]: 17.90 ± 14.18 % ID/g
- blood uptake [1]: 1.02 ± 0.43 % ID/g
- bone uptake [1]: 0.40 ± 0.16 % ID/g
- fat uptake [1]: 0.33 ± 0.08 % ID/g
- heart uptake [1]: 0.36 ± 0.18 % ID/g
- kidney uptake [1]: 44.08 ± 12.52 % ID/g
- large intestine uptake [1]: 0.87 ± 0.85 % ID/g
- liver uptake [1]: 1.70 ± 0.21 % ID/g
- lung uptake [1]: 1.09 ± 0.31 % ID/g
- muscle uptake [1]: 0.22 ± 0.07 % ID/g
- pancreas uptake [1]: 0.44 ± 0.13 % ID/g
- salivary gland uptake [1]: 0.85 ± 0.39 % ID/g
- small intestine uptake [1]: 0.37 ± 0.11 % ID/g
- spleen uptake [1]: 1.67 ± 0.46 % ID/g
- stomach uptake [1]: 0.41 ± 0.14 % ID/g
- PIP/flu uptake ratio (60 min postinjection): 170
- PIP/kidney uptake ratio (tumor-to-kidney) (60 min postinjection): 2.4
- bladder (empty) uptake [2]: 7.78 ± 4.15 % ID/g
- blood uptake [2]: 0.29 ± 0.08 % ID/g
- bone uptake [2]: 0.16 ± 0.04 % ID/g
- fat uptake [2]: 0.31 ± 0.18 % ID/g
- heart uptake [2]: 0.18 ± 0.06 % ID/g
- kidney uptake [2]: 20.08 ± 8.09 % ID/g
- large intestine uptake [2]: 0.27 ± 0.14 % ID/g
- liver uptake [2]: 1.73 ± 0.14 % ID/g
- lung uptake [2]: 0.49 ± 0.24 % ID/g
- muscle uptake [2]: 0.11 ± 0.06 % ID/g
- pancreas uptake [2]: 0.16 ± 0.06 % ID/g
- salivary gland uptake [2]: 0.31 ± 0.07 % ID/g
- small intestine uptake [2]: 0.23 ± 0.04 % ID/g
- spleen uptake [2]: 0.69 ± 0.23 % ID/g
- stomach uptake [2]: 0.34 ± 0.20 % ID/g
- PIP/flu uptake ratio (120 min postinjection): 243
- PIP/kidney uptake ratio (tumor-to-kidney) (120 min postinjection): 4
- bladder (empty) uptake [3]: 4.33 ± 2.64 % ID/g
- blood uptake [3]: 0.28 ± 0.23 % ID/g
- bone uptake [3]: 0.37 ± 0.36 % ID/g
- fat uptake [3]: 0.17 ± 0.10 % ID/g
- heart uptake [3]: 0.07 ± 0.02 % ID/g
- kidney uptake [3]: 10.20 ± 2.76 % ID/g
- large intestine uptake [3]: 0.31 ± 0.13 % ID/g
- liver uptake [3]: 1.74 ± 0.23 % ID/g
- lung uptake [3]: 0.22 ± 0.10 % ID/g
- muscle uptake [3]: 0.10 ± 0.03 % ID/g
- pancreas uptake [3]: 0.11 ± 0.06 % ID/g
- salivary gland uptake [3]: 0.25 ± 0.07 % ID/g
- small intestine uptake [3]: 0.18 ± 0.07 % ID/g
- spleen uptake [3]: 0.29 ± 0.16 % ID/g
- stomach uptake [3]: 0.12 ± 0.07 % ID/g
- PIP/flu uptake ratio (240 min postinjection): 368
- PIP/kidney uptake ratio (tumor-to-kidney) (240 min postinjection): 6.7
- bladder (empty) uptake [4]: 1.22 ± 0.89 % ID/g
- blood uptake [4]: 0.12 ± 0.04 % ID/g
- bone uptake [4]: 0.11 ± 0.03 % ID/g
- fat uptake [4]: 0.10 ± 0.04 % ID/g
- heart uptake [4]: 0.04 ± 0.01 % ID/g
- kidney uptake [4]: 3.84 ± 0.29 % ID/g
- large intestine uptake [4]: 0.23 ± 0.09 % ID/g
- liver uptake [4]: 1.45 ± 0.14 % ID/g
- lung uptake [4]: 0.13 ± 0.02 % ID/g
- muscle uptake [4]: 0.06 ± 0.03 % ID/g
- pancreas uptake [4]: 0.07 ± 0.02 % ID/g
- salivary gland uptake [4]: 0.14 ± 0.02 % ID/g
- small intestine uptake [4]: 0.14 ± 0.03 % ID/g
- spleen uptake [4]: 0.15 ± 0.05 % ID/g
- stomach uptake [4]: 0.06 ± 0.02 % ID/g
- PSMA^+ PIP tumor uptake [1]: 40.31 ± 5.13 % ID/g
- PSMA^+ PIP tumor uptake [2]: 47.58 ± 5.19 % ID/g
- PSMA^+ PIP tumor uptake [3]: 41.29 ± 4.22 % ID/g
- PSMA^+ PIP tumor uptake [4]: 25.74 ± 7.33 % ID/g
- PSMA^− flu tumor uptake [1]: 0.58 ± 0.23 % ID/g
- PSMA^− flu tumor uptake [2]: 0.28 ± 0.13 % ID/g
- PSMA^− flu tumor uptake [3]: 0.17 ± 0.03 % ID/g
- PSMA^− flu tumor uptake [4]: 0.07 ± 0.01 % ID/g
- kidney, liver, and spleen uptake compared to [^18F]DCFPyL (all time points, two-tailed Student's t test): significantly lower
- difference in PSMA^− PC3 flu tumor uptake between the two radiotracers (any time): no significant difference
- bone uptake (at all time points): < 1 % ID/g
